# Source: PubChem BioAssay AID220 (DTP/NCI, 2004)
# “And” between values parts separate entries of the source, which are not always exact repeats. Identical values can stand only once. Results filed as inconclusive are left out.
# Test system: CD8F1 mice, subcutaneous mammary adenocarcinoma, T/C%
# Experiment: NCI In Vivo Anticancer Drug Screen. Data for tumor model Mammary Adenocarcinoma CD8F1 (subcutaneous) in CD8F1
# Details: higher = larger tumour
# Method in brief: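 Mice carrying transplanted tumors received test compound, and survival or tumor size was recorded. Each value is the treated-group measurement divided by the corresponding measurement in vehicle-dosed controls.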
# [1] = endpoint: median tumor weight (est.), dose: 100.0 mg/kg/injection, schedule: Q07DX005 (ip), vehicle: Klucel (hydroxypropylcellulose) (HPC)
# [2] = endpoint: median tumor weight (est.), dose: 200.0 mg/kg/injection, schedule: Q07DX005 (ip), vehicle: Klucel (hydroxypropylcellulose) (HPC)
# [3] = endpoint: median tumor weight (est.), dose: 800.0 mg/kg/injection, schedule: Q07DX005 (ip), vehicle: Klucel (hydroxypropylcellulose) (HPC)
compound,measurement,setting,value
CCC(=O)N(C)[C@@H](C)C(=O)O[C@H]1CC(=O)N(C)c2cc(cc(OC)c2Cl)C/C(C)=C/C=C[C@@H](OC)[C@@]2(O)C[C@H](OC(=O)N2)[C@@H](C)[C@@H]2O[C@@]12C,T/C,"endpoint: median tumor weight (est.), dose: 7.5 micrograms/kg/injection, schedule: Q07DX005 (ip), vehicle: saline + alcohol",210 % of control
same,T/C,"endpoint: median tumor weight (est.), dose: 15.0 micrograms/kg/injection, schedule: Q07DX005 (ip), vehicle: saline + alcohol",112 % of control
same,T/C,"endpoint: median tumor weight (est.), dose: 30.0 micrograms/kg/injection, schedule: Q07DX005 (ip), vehicle: saline + alcohol",84 % of control
same,T/C,"endpoint: median tumor weight (est.), dose: 60.0 micrograms/kg/injection, schedule: Q07DX005 (ip), vehicle: saline + alcohol",98 % of control
CN(C1=NS(=O)(=O)N=C(N(C)c2ccccc2)O1)c1ccccc1,T/C,"endpoint: median tumor weight (est.), dose: 12.5 mg/kg/injection, schedule: Q07DX005 (ip), vehicle: Klucel (hydroxypropylcellulose) (HPC)",86 % of control
same,T/C,"endpoint: median tumor weight (est.), dose: 25.0 mg/kg/injection, schedule: Q07DX005 (ip), vehicle: Klucel (hydroxypropylcellulose) (HPC)",88 % of control
same,T/C,"endpoint: median tumor weight (est.), dose: 50.0 mg/kg/injection, schedule: Q07DX005 (ip), vehicle: Klucel (hydroxypropylcellulose) (HPC)",90 % of control
same,T/C,[1],123 % of control and 115 % of control
same,T/C,[2],86 % of control and 111 % of control
same,T/C,[3],85 % of control
same,T/C,"endpoint: median tumor weight change, dose: 50.0 mg/kg/injection, schedule: Q01DX001 (ip), vehicle: Klucel (hydroxypropylcellulose) (HPC)",76 % of control
same,T/C,"endpoint: median tumor weight change, dose: 100.0 mg/kg/injection, schedule: Q01DX001 (ip), vehicle: Klucel (hydroxypropylcellulose) (HPC)",71 % of control and 75 % of control and 91 % of control
same,T/C,"endpoint: median tumor weight change, dose: 800.0 mg/kg/injection, schedule: Q01DX001 (ip), vehicle: Klucel (hydroxypropylcellulose) (HPC)",47 % of control and 64 % of control and 69 % of control
same,T/C,"endpoint: median tumor weight change, dose: 1600.0 mg/kg/injection, schedule: Q01DX001 (ip), vehicle: Klucel (hydroxypropylcellulose) (HPC)",70 % of control
Cn1cnc([N+](=O)[O-])c1SCC(=O)O,T/C,[1],100 % of control
same,T/C,[2],107 % of control
same,T/C,"endpoint: median tumor weight (est.), dose: 400.0 mg/kg/injection, schedule: Q07DX005 (ip), vehicle: Klucel (hydroxypropylcellulose) (HPC)",166 % of control
same,T/C,[3],65 % of control
same,T/C,"endpoint: median tumor weight change, dose: 62.5 mg/kg/injection, schedule: Q01DX001 (ip), vehicle: Klucel (hydroxypropylcellulose) (HPC)",75 % of control
same,T/C,"endpoint: median tumor weight change, dose: 125.0 mg/kg/injection, schedule: Q01DX001 (ip), vehicle: Klucel (hydroxypropylcellulose) (HPC)",72 % of control
same,T/C,"endpoint: median tumor weight change, dose: 250.0 mg/kg/injection, schedule: Q01DX001 (ip), vehicle: Klucel (hydroxypropylcellulose) (HPC)",76 % of control
same,T/C,"endpoint: median tumor weight change, dose: 500.0 mg/kg/injection, schedule: Q01DX001 (ip), vehicle: Klucel (hydroxypropylcellulose) (HPC)",74 % of control
same,T/C,"endpoint: median tumor weight change, dose: 1000.0 mg/kg/injection, schedule: Q01DX001 (ip), vehicle: Klucel (hydroxypropylcellulose) (HPC)",60 % of control
same,T/C,"endpoint: median tumor weight change, dose: 2000.0 mg/kg/injection, schedule: Q01DX001 (ip), vehicle: Klucel (hydroxypropylcellulose) (HPC)",68 % of control
O=C1c2ccccc2C(=O)c2c(NCCNCCO)ccc(NCCNCCO)c21,T/C,"endpoint: mean tumor weight, dose: 8.3 mg/kg/injection, schedule: Q07DX004 (ip), vehicle: Klucel (hydroxypropylcellulose) (HPC)",60 % of control
same,T/C,"endpoint: mean tumor weight, dose: 16.6 mg/kg/injection, schedule: Q07DX004 (ip), vehicle: Klucel (hydroxypropylcellulose) (HPC)",81 % of control
same,T/C,"endpoint: mean tumor weight, dose: 31.25 mg/kg/injection, schedule: Q07DX004 (ip), vehicle: Klucel (hydroxypropylcellulose) (HPC)",25 % of control
same,T/C,"endpoint: mean tumor weight, dose: 62.5 mg/kg/injection, schedule: Q07DX004 (ip), vehicle: Klucel (hydroxypropylcellulose) (HPC)",59 % of control
same,T/C,"endpoint: mean tumor weight, dose: 125.0 mg/kg/injection, schedule: Q07DX004 (ip), vehicle: Klucel (hydroxypropylcellulose) (HPC)",37 % of control
same,T/C,"endpoint: median tumor weight (est.), dose: 2.0 mg/kg/injection, schedule: Q07DX005 (ip), vehicle: saline",74 % of control
same,T/C,"endpoint: median tumor weight (est.), dose: 4.0 mg/kg/injection, schedule: Q04DX005 (ip), vehicle: water",97 % of control
same,T/C,"endpoint: median tumor weight (est.), dose: 4.0 mg/kg/injection, schedule: Q07DX004 (ip), vehicle: water",74 % of control
same,T/C,"endpoint: median tumor weight (est.), dose: 4.0 mg/kg/injection, schedule: Q07DX005 (ip), vehicle: saline",92 % of control
same,T/C,"endpoint: median tumor weight (est.), dose: 4.0 mg/kg/injection, schedule: Q07DX005 (ip), vehicle: water",93 % of control
same,T/C,"endpoint: median tumor weight (est.), dose: 8.0 mg/kg/injection, schedule: Q04DX005 (ip), vehicle: water",62 % of control
same,T/C,"endpoint: median tumor weight (est.), dose: 8.0 mg/kg/injection, schedule: Q07DX004 (ip), vehicle: water",69 % of control
same,T/C,"endpoint: median tumor weight (est.), dose: 8.0 mg/kg/injection, schedule: Q07DX005 (ip), vehicle: saline",92 % of control
same,T/C,"endpoint: median tumor weight (est.), dose: 15.63 mg/kg/injection, schedule: Q04DX005 (ip), vehicle: Klucel (hydroxypropylcellulose) (HPC)",30 % of control
same,T/C,"endpoint: median tumor weight (est.), dose: 15.63 mg/kg/injection, schedule: Q07DX004 (ip), vehicle: Klucel (hydroxypropylcellulose) (HPC)",33 % of control
same,T/C,"endpoint: median tumor weight (est.), dose: 16.0 mg/kg/injection, schedule: Q04DX005 (ip), vehicle: water",66 % of control
same,T/C,"endpoint: median tumor weight (est.), dose: 16.0 mg/kg/injection, schedule: Q07DX004 (ip), vehicle: water",72 % of control
same,T/C,"endpoint: median tumor weight (est.), dose: 16.0 mg/kg/injection, schedule: Q07DX005 (ip), vehicle: saline",84 % of control
same,T/C,"endpoint: median tumor weight (est.), dose: 16.12 mg/kg/injection, schedule: Q04DX005 (ip), vehicle: Klucel (hydroxypropylcellulose) (HPC)",9 % of control
same,T/C,"endpoint: median tumor weight (est.), dose: 16.12 mg/kg/injection, schedule: Q07DX004 (ip), vehicle: Klucel (hydroxypropylcellulose) (HPC)",17 % of control
same,T/C,"endpoint: median tumor weight (est.), dose: 31.25 mg/kg/injection, schedule: Q04DX005 (ip), vehicle: Klucel (hydroxypropylcellulose) (HPC)",11 % of control
same,T/C,"endpoint: median tumor weight (est.), dose: 32.0 mg/kg/injection, schedule: Q01DX001 (ip), vehicle: water",63 % of control
same,T/C,"endpoint: median tumor weight (est.), dose: 32.0 mg/kg/injection, schedule: Q04DX005 (ip), vehicle: water",18 % of control
same,T/C,"endpoint: median tumor weight (est.), dose: 32.0 mg/kg/injection, schedule: Q07DX004 (ip), vehicle: water",44 % of control
same,T/C,"endpoint: median tumor weight (est.), dose: 32.0 mg/kg/injection, schedule: Q07DX005 (ip), vehicle: saline",56 % of control
same,T/C,"endpoint: median tumor weight (est.), dose: 62.5 mg/kg/injection, schedule: Q07DX005 (ip), vehicle: Klucel (hydroxypropylcellulose) (HPC)",10 % of control
same,T/C,"endpoint: median tumor weight (est.), dose: 64.0 mg/kg/injection, schedule: Q07DX004 (ip), vehicle: water",7 % of control
same,T/C,"endpoint: median tumor weight (est.), dose: 64.0 mg/kg/injection, schedule: Q07DX005 (ip), vehicle: water",19 % of control
O=CC(O)C(O)C(O)C(O)CO (stereo not given),T/C,"endpoint: median tumor weight change, dose: 75.0 mg/kg/injection, schedule: Q01DX001 (ip), vehicle: saline",66 % of control
same,T/C,"endpoint: median tumor weight change, dose: 150.0 mg/kg/injection, schedule: Q01DX001 (ip), vehicle: saline",43 % of control
same,T/C,"endpoint: median tumor weight change, dose: 300.0 mg/kg/injection, schedule: Q01DX001 (ip), vehicle: saline",61 % of control
same,T/C,"endpoint: median tumor weight change, dose: 600.0 mg/kg/injection, schedule: Q01DX001 (ip), vehicle: saline",35 % of control
same,T/C,"endpoint: median tumor weight change, dose: 1200.0 mg/kg/injection, schedule: Q01DX001 (ip), vehicle: saline",55 % of control
Oc1ccc(O)cc1,T/C,"endpoint: median tumor weight (est.), dose: 12.5 mg/kg/injection, schedule: Q07DX004 (ip), vehicle: saline",36 % of control
same,T/C,"endpoint: median tumor weight (est.), dose: 25.0 mg/kg/injection, schedule: Q07DX004 (ip), vehicle: saline",76 % of control
same,T/C,"endpoint: median tumor weight (est.), dose: 50.0 mg/kg/injection, schedule: Q07DX004 (ip), vehicle: saline",68 % of control
same,T/C,"endpoint: median tumor weight (est.), dose: 100.0 mg/kg/injection, schedule: Q07DX004 (ip), vehicle: saline",57 % of control
O=C(NO)c1ccccc1,T/C,"endpoint: median tumor weight (est.), dose: 25.0 mg/kg/injection, schedule: Q07DX005 (ip), vehicle: suspension in saline",46 % of control
same,T/C,"endpoint: median tumor weight (est.), dose: 50.0 mg/kg/injection, schedule: Q07DX005 (ip), vehicle: suspension in saline",109 % of control
same,T/C,"endpoint: median tumor weight (est.), dose: 100.0 mg/kg/injection, schedule: Q07DX005 (ip), vehicle: suspension in saline",293 % of control
COc1cccc2c1C(=O)c1c(O)c3c(c(O)c1C2=O)CC(O)(/C(C)=N/NC(=O)CCC(=O)N/N=C(\C)C1(O)Cc2c(O)c4c(c(O)c2C(OC2CC(N)C(O)C(C)O2)C1)C(=O)c1c(OC)cccc1C4=O)CC3OC1CC(N)C(O)C(C)O1 (stereo not given),T/C,"endpoint: median tumor weight (est.), dose: 1.5 mg/kg/injection, schedule: Q07DX005 (ip), vehicle: water",167 % of control
same,T/C,"endpoint: median tumor weight (est.), dose: 6.0 mg/kg/injection, schedule: Q07DX005 (ip), vehicle: water",45 % of control
same,T/C,"endpoint: median tumor weight (est.), dose: 12.0 mg/kg/injection, schedule: Q07DX005 (ip), vehicle: water",17 % of control and 40 % of control
same,T/C,"endpoint: median tumor weight (est.), dose: 24.0 mg/kg/injection, schedule: Q07DX005 (ip), vehicle: water",7 % of control
C[CH2][Pb]([CH2]C)([CH2]C)[O]C(=O)COc1ccccc1,T/C,"endpoint: mean tumor weight, dose: 0.75 mg/kg/injection, schedule: Q01DX009 (ip), vehicle: saline",112 % of control
same,T/C,"endpoint: mean tumor weight, dose: 0.75 mg/kg/injection, schedule: Q07DX009 (ip), vehicle: saline",398 % of control
same,T/C,"endpoint: mean tumor weight, dose: 1.5 mg/kg/injection, schedule: Q01DX009 (ip), vehicle: saline",57 % of control
same,T/C,"endpoint: mean tumor weight, dose: 1.5 mg/kg/injection, schedule: Q07DX009 (ip), vehicle: saline",192 % of control
same,T/C,"endpoint: mean tumor weight, dose: 3.0 mg/kg/injection, schedule: Q01DX009 (ip), vehicle: saline",73 % of control
same,T/C,"endpoint: mean tumor weight, dose: 3.0 mg/kg/injection, schedule: Q07DX009 (ip), vehicle: saline",172 % of control
same,T/C,"endpoint: mean tumor weight, dose: 6.0 mg/kg/injection, schedule: Q07DX009 (ip), vehicle: saline",165 % of control
